Data: the supplement of paper PMC11208160
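Further: IS621 bridge recombinase in Escherichia coli cells against a fixed T5 target plasmid.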

Test: recombinant UMI read abundance after kanamycin selection (control-corrected) (log10(CPM+1)); higher = more efficient recombination; extreme values may be limits of the assay; sequences stand for … in AGTGCAGAGAAAATCGGCCAGTTTTCTCTGCCTGCAGTCCGCATGCCGTGGGACCCCTTGGGTTCTAACCTGTTGCCTAGATTTATGCAGCGGACTGCCTTTCTCCCAAAGTGATAAACCGG…AGGTTGGTTTCACT; site = the 11-nt donor
Summary of the method: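 Values are reported as log10(CPM+1), obtained by converting sequencing counts to CPM, averaging replicates and scaling by control-derived factors. The counts came from recombinant UMIs amplified by PCR across the donor–target junction. These UMIs came from a pooled Escherichia coli screen of donor and donor-binding-loop pairs for the IS621 bridge recombinase, plated with IPTG (0.07 mM) plus kanamycin or left unselected, in two replicates each.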
With “GGATAGACATGGACCGGTTTTCCCGGTAATCCGTATTTGCC (site GGATAAACTGG)” the “recombinant UMI read abundance (log10)” value was 2.06. For “GGATAGACATGGACCGGTTTTCCCGGTAATCCGTATTTGCC (site GGATACACTGG)”, the “recombinant UMI read abundance (log10)” value was 1.54. With “GGATAGACATGGACCGGTTTTCCCGGTAATCCGTATTTGCC (site GGATAGACTAG)” the “recombinant UMI read abundance (log10)” value was 0.852. With “GGATAGACATGGACCGGTTTTCCCGGTAATCCGTATTTGCC (site GGATAGACTCG)” the “recombinant UMI read abundance (log10)” value was 0.799. In the case of “GGATAGACATGGACCGGTTTTCCCGGTAATCCGTATTTGCC (site GGATAGACTGA)”, the “recombinant UMI read abundance (log10)” value is reported as 1.38. With “GGATAGACATGGACCGGTTTTCCCGGTAATCCGTATTTGCC (site GGATAGACTGC)” the “recombinant UMI read abundance (log10)” value was 0. For “GGATAGACATGGACCGGTTTTCCCGGTAATCCGTATTTGCC (site GGATAGACTGG)”, the “recombinant UMI read abundance (log10)” value was 2.73. In the case of “GGATAGACATGGACCGGTTTTCCCGGTAATCCGTATTTGCC (site GGATAGACTGT)”, the “recombinant UMI read abundance (log10)” value is reported as 1.32. With “GGATAGACATGGACCGGTTTTCCCGGTAATCCGTATTTGCC (site GGATAGACTTG)” the “recombinant UMI read abundance (log10)” value was 1.75. With “GGATAGACATGGACCGGTTTTCCCGGTAATCCGTATTTGCC (site GGATAGCCTGG)” the “recombinant UMI read abundance (log10)” value was 0.943. For “GGATAGACATGGACCGGTTTTCCCGGTAATCCGTATTTGCC (site GGATAGGCTGG)”, the “recombinant UMI read abundance (log10)” value was 1.98. For “GGATAGACATGGACCGGTTTTCCCGGTAATCCGTATTTGCC (site GGATAGTCTGG)”, the “recombinant UMI read abundance (log10)” value was 1.62. With “GGATAGACATGGACCGGTTTTCCCGGTAATCCGTATTTGCC (site GGATATACTGG)” the “recombinant UMI read abundance (log10)” value was 2.8. In the case of “GGATAGACATGGACCGGTTTTCCCGGTAATCCGTATTTGCC (site GGATCGACTGG)”, the “recombinant UMI read abundance (log10)” value is reported as 0. For “GGATAGACATGGACCGGTTTTCCCGGTAATCCGTATTTGCC (site GGATGGACTGG)”, the “recombinant UMI read abundance (log10)” value was 0. For “GGATAGACATGGACCGGTTTTCCCGGTAATCCGTATTTGCC (site GGATTGACTGG)”, the “recombinant UMI read abundance (log10)” value was 0. For “GGATAGACATGGACCGGTTTTCCCGGTAATCCGTATTTGCC (site GGCTAGACTGG)”, the “recombinant UMI read abundance (log10)” value was 1.03. For “GGATAGACATGGACCGGTTTTCCCGGTAATCCGTATTTGCC (site GGGTAGACTGG)”, the “recombinant UMI read abundance (log10)” value was 0.24. With “GGATAGACATGGACCGGTTTTCCCGGTAATCCGTATTTGCC (site GGTTAGACTGG)” the “recombinant UMI read abundance (log10)” value was 1.09. For “GGATAGACATGGACCGGTTTTCCCGGTAATCCGTATTTGCC (site GTATAGACTGG)”, the “recombinant UMI read abundance (log10)” value was 1.89. In the case of “GGATAGACATGGACCGGTTTTCCCGGTAATCCGTATTTGCC (site TGATAGACTGG)”, the “recombinant UMI read abundance (log10)” value is reported as 2.09. For “GGATAGACATGGACCGGTTTTCCCGGTAATCCGTATTTGGC (site GGATAGACTGA)”, the “recombinant UMI read abundance (log10)” value was 1.7. In the case of “GGATAGACATGGACCGGTTTTCCCGGTAATCCGTATTTGGC (site GGATAGACTGC)”, the “recombinant UMI read abundance (log10)” value is reported as 2.35. For “GGATAGACATGGACCGGTTTTCCCGGTAATCCGTATTTGGC (site GGATAGACTGG)”, the “recombinant UMI read abundance (log10)” value was 0. For “GGATAGACATGGACCGGTTTTCCCGGTAATCCGTATTTGGC (site GGATAGACTGT)”, the “recombinant UMI read abundance (log10)” value was 2.32. With “GGATAGACATGGACCGGTTTTCCCGGTAATCCGTATTTGTC (site GGATAGACTGA)” the “recombinant UMI read abundance (log10)” value was 3.09. With “GGATAGACATGGACCGGTTTTCCCGGTAATCCGTATTTGTC (site GGATAGACTGC)” the “recombinant UMI read abundance (log10)” value was 0.855. For “GGATAGACATGGACCGGTTTTCCCGGTAATCCGTATTTGTC (site GGATAGACTGG)”, the “recombinant UMI read abundance (log10)” value was 2.1. With “GGATAGACATGGACCGGTTTTCCCGGTAATCCGTATTTGTC (site GGATAGACTGT)” the “recombinant UMI read abundance (log10)” value was 1.81. For “GGATAGTCATGGACCGGTTTTCCCGGTAATCCGTATTTGCT (site GGATAGTCTAG)”, the “recombinant UMI read abundance (log10)” value was 3.17. With “GGATATACATGGACCGGTTTTCCCGGTAATCCGTATTTGAT (site GGATATACTAT)” the “recombinant UMI read abundance (log10)” value was 2.03. In the case of “GGATCGACATGGACCGGTTTTCCCGGTAATCCGTATTTGTA (site GGATCGACTTA)”, the “recombinant UMI read abundance (log10)” value is reported as 0.775. With “GGATCGTCATGGACCGGTTTTCCCGGTAATCCGTATTTGCT (site CGATCATCTAG)” the “recombinant UMI read abundance (log10)” value was 0.402. With “GGATCGTCATGGACCGGTTTTCCCGGTAATCCGTATTTGCT (site GGATCGTCTAG)” the “recombinant UMI read abundance (log10)” value was 2.28. With “GGATGAACATGGACCGGTTTTCCCGGTAATCCGTATTTGTT (site GGATGAACTAA)” the “recombinant UMI read abundance (log10)” value was 1.78. In the case of “GGATTCACATGGACCGGTTTTCCCGGTAATCCGTATTTGTT (site GGATTCACTAA)”, the “recombinant UMI read abundance (log10)” value is reported as 1.44. With “GGATTGGCATGGACCGGTTTTCCCGGTAATCCGTATTTGGT (site GGAATGGCTAC)” the “recombinant UMI read abundance (log10)” value was 0.341. With “GGATTGGCATGGACCGGTTTTCCCGGTAATCCGTATTTGGT (site GGACTGGCTAC)” the “recombinant UMI read abundance (log10)” value was 0.611. For “GGATTGGCATGGACCGGTTTTCCCGGTAATCCGTATTTGGT (site GGAGTGGCTAC)”, the “recombinant UMI read abundance (log10)” value was 0.0175. With “GGATTGGCATGGACCGGTTTTCCCGGTAATCCGTATTTGGT (site GGATTGGCTAC)” the “recombinant UMI read abundance (log10)” value was 1.46. In the case of “GGCAAACCATGGACCGGTTTTCCCGGTAATCCGTATTTGGT (site GACAAACCTAC)”, the “recombinant UMI read abundance (log10)” value is reported as 0. With “GGCAAACCATGGACCGGTTTTCCCGGTAATCCGTATTTGGT (site GCCAAACCTAC)” the “recombinant UMI read abundance (log10)” value was 0. With “GGCAAACCATGGACCGGTTTTCCCGGTAATCCGTATTTGGT (site GGCAAACCTAC)” the “recombinant UMI read abundance (log10)” value was 0. With “GGCAAACCATGGACCGGTTTTCCCGGTAATCCGTATTTGGT (site GTCAAACCTAC)” the “recombinant UMI read abundance (log10)” value was 0. For “GGCAACCCATGGACCGGTTTTCCCGGTAATCCGTATTTGAA (site GGCAAACCTTT)”, the “recombinant UMI read abundance (log10)” value was 0. For “GGCAACCCATGGACCGGTTTTCCCGGTAATCCGTATTTGAA (site GGCAACCCTTT)”, the “recombinant UMI read abundance (log10)” value was 0.0234. For “GGCAACCCATGGACCGGTTTTCCCGGTAATCCGTATTTGAA (site GGCAAGCCTTT)”, the “recombinant UMI read abundance (log10)” value was 0. For “GGCAACCCATGGACCGGTTTTCCCGGTAATCCGTATTTGAA (site GGCAATCCTTT)”, the “recombinant UMI read abundance (log10)” value was 0.00284. For “GGCAATCCATGGACCGGTTTTCCCGGTAATCCGTATTTGAT (site GGCAATCCTAT)”, the “recombinant UMI read abundance (log10)” value was 0.192. For “GGCAATCCATGGACCGGTTTTCCCGGTAATCCGTATTTGAT (site GGCAATCCTCT)”, the “recombinant UMI read abundance (log10)” value was 0.0105. For “GGCAATCCATGGACCGGTTTTCCCGGTAATCCGTATTTGAT (site GGCAATCCTGT)”, the “recombinant UMI read abundance (log10)” value was 0. In the case of “GGCAATCCATGGACCGGTTTTCCCGGTAATCCGTATTTGAT (site GGCAATCCTTT)”, the “recombinant UMI read abundance (log10)” value is reported as 0.00349. For “GGCAATCCATGGACCGGTTTTCCCGGTAATCCGTATTTGCA (site GGCAATCCTTA)”, the “recombinant UMI read abundance (log10)” value was 0.227. With “GGCAATCCATGGACCGGTTTTCCCGGTAATCCGTATTTGCA (site GGCAATCCTTC)” the “recombinant UMI read abundance (log10)” value was 0.0145. For “GGCAATCCATGGACCGGTTTTCCCGGTAATCCGTATTTGCA (site GGCAATCCTTG)”, the “recombinant UMI read abundance (log10)” value was 0. For “GGCAATCCATGGACCGGTTTTCCCGGTAATCCGTATTTGCA (site GGCAATCCTTT)”, the “recombinant UMI read abundance (log10)” value was 0.0136. With “GGCAATTCATGGACCGGTTTTCCCGGTAATCCGTATTTGAA (site GGCAATACTTT)” the “recombinant UMI read abundance (log10)” value was 0.0193.
